One experiment addresses SARS-CoV-2 nsp14 (Severe acute respiratory syndrome coronavirus 2, UniProt P0DTD1). Kind of experiment: biochemical. Particulars: 100 μM.
The target of a further experiment is SARS-CoV-2 nsp16/nsp10 (Severe acute respiratory syndrome coronavirus 2, UniProt P0DTD1). The experiment in a line: biochemical. Particulars: 100 μM.

`CN(C)c1nc2c(c(N(C)C)n1)CCN(C(=O)[C@@H](N)Cc1ccc(O)cc1)C2` [ZINC000071682020]: the “Percent inhibition at 100 μM, nsp14” value on SARS-CoV-2 nsp14 came to 12 ±5%. For the same molecule, the “Percent inhibition at 100 μM, nsp16” value on SARS-CoV-2 nsp16/nsp10 was 9 ±8%.
On the same counts, the results for `COc1ccc(C2=NN(C(=O)CCc3ccc4c(c3)OCO4)C(O)(C(F)(F)F)C2)cc1` (stereo not shown) [ZINC000016448507] are 9 ±4% and 11 ±5%.
Consider `Nc1ncnc2c1ncn2[C@@H]1O[C@H](COS(=O)(=O)NC(=O)c2ccccc2O)[C@@H](O)[C@H]1O` [ZINC000028567519], for which the “Percent inhibition at 100 μM, nsp14” value at SARS-CoV-2 nsp14 is reported as 28 ±2%. Moreover, the “Percent inhibition at 100 μM, nsp16” value on SARS-CoV-2 nsp16/nsp10 was determined as 14 ±3%.
The like results for `Cc1csc(C2CCCN(C(=O)CCn3cnc4c(N)ncnc43)C2)n1` (stereo not shown) [Compound 046-114-939] were, in that order, 15 ±4% and 37 ±13%.
The like results for `Cc1ccc(NC(=O)Cn2c(=O)n(CC(=O)NCc3ccco3)c(=O)c3ccccc32)cc1C` [ZINC000009617688] were, in that order, 10 ±6% and -8 ±4%.
Turning to `O=C(O)CCC(=O)Nc1nc2n(n1)C(c1ccccc1)CC(=O)N2` (stereo not shown) [ZINC000000095711], on SARS-CoV-2 nsp14, the “Percent inhibition at 100 μM, nsp14” value is recorded as -16 ±0%. For the same molecule, on SARS-CoV-2 nsp16/nsp10, the “Percent inhibition at 100 μM, nsp16” value is listed as -77 ±13%.
On the same counts, the results for `O=C(O)c1cc(CN2CC[C@@H](c3ccc4ccccc4c3)[C@H](O)C2)ccc1O` [ZINC000065452571] are -3 ±8% and -2 ±5%.
On the same counts, the results for `Cn1c(=O)c(=O)n(CC(=O)NCCN(CCc2ccccc2)Cc2ccco2)c2ccccc21` [ZINC000021649685] are 10 ±9% and 7 ±4%.
With `O=C(CCCn1cncn1)N1CCCC(c2nc3ccccc3s2)C1` (stereo not shown) [Compound 045-938-897], the “Percent inhibition at 100 μM, nsp14” value at SARS-CoV-2 nsp14 is 7 ±2%. Besides, the “Percent inhibition at 100 μM, nsp16” value on SARS-CoV-2 nsp16/nsp10 is listed as -29 ±5%.
On the same counts, the results for `COc1cccc(C2CC(O)=Nc3c2c(C)nn3-c2ncnc3[nH]cnc23)c1` (stereo not shown) [ZINC000020745418] are -8 ±5% and -7 ±2%.
Turning to `O=C(c1ccc2c3c([nH]c2c1)CCCC3)N1CCC[C@H]1c1nc(-c2ccncc2)no1` [ZINC000952966781], the “Percent inhibition at 100 μM, nsp14” value at SARS-CoV-2 nsp14 came out at 11 ±10%. Moreover, the “Percent inhibition at 100 μM, nsp16” value at SARS-CoV-2 nsp16/nsp10 was determined as 24 ±5%.
For `C=CCn1c(=O)c(=O)n(CC(=O)NCCN2CCN(c3cc(Cl)ccc3C)CC2)c2ccccc21` [ZINC000033268761], the “Percent inhibition at 100 μM, nsp14” value at SARS-CoV-2 nsp14 stood at 9 ±3%. Further, the “Percent inhibition at 100 μM, nsp16” value on SARS-CoV-2 nsp16/nsp10 came out at 32 ±7%.
On the same counts, the results for `CN(C)c1nc2c(c(=O)[nH]1)CCN(C(=O)c1n[nH]cc1Cl)C2` [ZINC000072172639] are -1 ±2% and 29 ±5%.
The like results for `Cc1cc(-c2ccc(C(=O)NCC(N)=O)cc2)nc(N2CCOCC2)n1` [ZINC000534574506] were, in that order, 3 ±3% and 17 ±8%.
On the same counts, the results for `O=C(CCc1cncnc1)N1CCCC(c2nc3ccccc3s2)C1` (stereo not shown) [Compound 046-723-388] are 5 ±3% and -45 ±13%.
In the case of `Cn1cnn(CCC(=O)N2CCCC(c3nc4ccccc4s3)C2)c1=O` (stereo not shown) [Compound 046-705-372], the “Percent inhibition at 100 μM, nsp14” value at SARS-CoV-2 nsp14 was 5 ±3%. Further, at SARS-CoV-2 nsp16/nsp10, the “Percent inhibition at 100 μM, nsp16” value is given as 15 ±8%.
The like results for `CC1(O)Cc2n[nH]c(O)c2C(c2ccccc2)C1` (stereo not shown) [ZINC000035326963] were, in that order, 4 ±8% and -2 ±6%.
